According to the kinase profiling compilation of Christmann-Franck et al. (2016):

Columns and labels:
Assay in all cases: radiometric filter-binding kinase assay, Kinase HotSpot
Conditions in all cases: compound 0.5 µM; ATP 10 µM
MET (human) = MET (human) (UniProt P08581)
EPHA4 (human) = EPHA4 (human) (UniProt P54764)
PRKD1 (human) = PRKD1 (human) (UniProt Q15139)
EPHA2 (human) = EPHA2 (human) (UniProt P29317)
PAK2 (human) = PAK2 (human) (UniProt Q13177)
HIPK4 (human) = HIPK4 (human) (UniProt Q8NE63)
DYRK1B (human) = DYRK1B (human) (UniProt Q9Y463)
PRKX (human) = PRKX (human) (UniProt P51817)
MAP3K8 (human) = MAP3K8 (human) (UniProt P41279)
PHKG2 (human) = PHKG2 (human) (UniProt P15735)
MAPK11 (human) = MAPK11 (human) (UniProt Q15759)
TXK (human) = TXK (human) (UniProt P42681)
[1] = biological target: JAK1 JH1 catalytic (human) (UniProt P23458)
MAP4K5 (human) = MAP4K5 (human) (UniProt Q9Y4K4)
RPS6KA1 KD1 KD2 (human) = RPS6KA1 KD1 KD2 (human) (UniProt Q15418)
RPS6KA5 KD2 (human) = RPS6KA5 KD2 (human) (UniProt O75582)
RPS6KA2 KD1 KD2 (human) = RPS6KA2 KD1 KD2 (human) (UniProt Q15349)
CDC42BPB (human) = CDC42BPB (human) (UniProt Q9Y5S2)
CDK2 CCNA2 (human) = CDK2 CCNA2 (human) (UniProt P24941+P20248)
NLK (human) = NLK (human) (UniProt Q9UBE8)
MAP3K3 (human) = MAP3K3 (human) (UniProt Q99759)
STK17A (human) = STK17A (human) (UniProt Q9UEE5)
MAPK12 (human) = MAPK12 (human) (UniProt P53778)
PRKCB1 (human) = PRKCB1 (human) (UniProt P05771)
PIM1 (human) = PIM1 (human) (UniProt P11309)
CSNK2A1 (human) = CSNK2A1 (human) (UniProt P68400)
TNK2 (human) = TNK2 (human) (UniProt Q07912)
CHEK2 (human) = CHEK2 (human) (UniProt O96017)
WNK3 (human) = WNK3 (human) (UniProt Q9BYP7)
TEK (human) = TEK (human) (UniProt Q02763)
CAMK4 (human) = CAMK4 (human) (UniProt Q16566)
ULK2 (human) = ULK2 (human) (UniProt Q8IYT8)
ALK (human) = ALK (human) (UniProt Q9UM73)
CAMK1 (human) = CAMK1 (human) (UniProt Q14012)
DYRK3 (human) = DYRK3 (human) (UniProt O43781)
ACVRL1 (human) = ACVRL1 (human) (UniProt P37023)
PRKACG (human) = PRKACG (human) (UniProt P22612)
AKT1 (human) = AKT1 (human) (UniProt P31749)
FGFR4 (human) = FGFR4 (human) (UniProt P22455)
DCLK2 (human) = DCLK2 (human) (UniProt Q8N568)
CSNK1G1 (human) = CSNK1G1 (human) (UniProt Q9HCP0)
SGK2 (human) = SGK2 (human) (UniProt Q9HBY8)
Sequence of SGK2 (human) (Q9HBY8 whole entry, looked up): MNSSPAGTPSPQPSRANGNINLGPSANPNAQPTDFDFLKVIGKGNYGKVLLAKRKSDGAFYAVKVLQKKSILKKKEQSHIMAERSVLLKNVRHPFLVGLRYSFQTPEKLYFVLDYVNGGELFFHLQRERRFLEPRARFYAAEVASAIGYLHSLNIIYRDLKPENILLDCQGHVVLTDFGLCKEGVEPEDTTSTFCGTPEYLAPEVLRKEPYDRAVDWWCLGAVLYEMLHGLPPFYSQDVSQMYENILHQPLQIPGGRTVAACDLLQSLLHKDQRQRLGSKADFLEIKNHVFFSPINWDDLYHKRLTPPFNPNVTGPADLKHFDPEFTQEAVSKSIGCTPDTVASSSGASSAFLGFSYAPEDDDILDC

Sequence of CHEK2 (human) (O96017 whole entry, looked up): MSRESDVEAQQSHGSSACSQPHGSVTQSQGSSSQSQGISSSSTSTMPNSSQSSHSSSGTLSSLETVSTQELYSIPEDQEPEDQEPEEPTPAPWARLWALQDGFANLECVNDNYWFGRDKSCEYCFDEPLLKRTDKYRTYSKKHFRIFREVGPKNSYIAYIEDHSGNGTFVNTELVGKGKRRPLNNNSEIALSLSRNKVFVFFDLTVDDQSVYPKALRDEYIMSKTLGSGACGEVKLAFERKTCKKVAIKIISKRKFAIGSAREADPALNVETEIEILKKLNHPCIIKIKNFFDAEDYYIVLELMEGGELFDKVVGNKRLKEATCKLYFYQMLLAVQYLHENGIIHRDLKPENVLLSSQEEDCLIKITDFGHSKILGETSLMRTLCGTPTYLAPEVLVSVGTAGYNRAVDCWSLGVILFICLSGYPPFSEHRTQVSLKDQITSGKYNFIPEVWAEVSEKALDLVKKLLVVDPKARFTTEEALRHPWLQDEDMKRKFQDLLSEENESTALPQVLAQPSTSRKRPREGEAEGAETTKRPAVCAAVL
Sequence of MAP3K3 (human) (Q99759 whole entry, looked up): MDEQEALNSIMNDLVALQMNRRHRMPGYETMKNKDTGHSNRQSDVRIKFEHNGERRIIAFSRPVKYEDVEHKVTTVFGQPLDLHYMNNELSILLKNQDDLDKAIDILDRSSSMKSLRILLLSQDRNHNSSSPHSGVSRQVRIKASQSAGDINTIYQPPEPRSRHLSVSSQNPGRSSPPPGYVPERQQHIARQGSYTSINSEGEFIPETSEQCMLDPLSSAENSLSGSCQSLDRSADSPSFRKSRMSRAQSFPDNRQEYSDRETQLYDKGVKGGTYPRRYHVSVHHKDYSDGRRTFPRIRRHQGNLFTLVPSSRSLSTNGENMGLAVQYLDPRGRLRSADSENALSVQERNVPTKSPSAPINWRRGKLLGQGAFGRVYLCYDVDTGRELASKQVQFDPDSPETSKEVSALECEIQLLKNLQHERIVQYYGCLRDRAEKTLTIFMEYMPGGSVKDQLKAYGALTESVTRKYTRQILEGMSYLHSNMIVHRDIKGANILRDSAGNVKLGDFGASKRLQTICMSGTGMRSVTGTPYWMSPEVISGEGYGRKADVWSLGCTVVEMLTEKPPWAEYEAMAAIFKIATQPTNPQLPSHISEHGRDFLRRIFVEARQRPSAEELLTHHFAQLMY
Sequence of PHKG2 (human) (P15735 whole entry, looked up): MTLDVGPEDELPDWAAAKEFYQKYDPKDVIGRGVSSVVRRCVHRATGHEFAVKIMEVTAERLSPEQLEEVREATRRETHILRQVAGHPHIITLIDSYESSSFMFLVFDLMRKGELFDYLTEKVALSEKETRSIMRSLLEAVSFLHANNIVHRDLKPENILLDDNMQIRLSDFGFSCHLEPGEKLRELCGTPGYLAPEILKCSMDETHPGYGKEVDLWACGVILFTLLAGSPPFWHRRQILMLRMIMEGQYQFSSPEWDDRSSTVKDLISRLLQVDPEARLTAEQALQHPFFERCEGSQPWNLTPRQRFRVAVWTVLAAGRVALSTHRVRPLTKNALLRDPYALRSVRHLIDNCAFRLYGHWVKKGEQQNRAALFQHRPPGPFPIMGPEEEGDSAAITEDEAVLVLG
Sequence of MAP3K8 (human) (P41279 whole entry, looked up): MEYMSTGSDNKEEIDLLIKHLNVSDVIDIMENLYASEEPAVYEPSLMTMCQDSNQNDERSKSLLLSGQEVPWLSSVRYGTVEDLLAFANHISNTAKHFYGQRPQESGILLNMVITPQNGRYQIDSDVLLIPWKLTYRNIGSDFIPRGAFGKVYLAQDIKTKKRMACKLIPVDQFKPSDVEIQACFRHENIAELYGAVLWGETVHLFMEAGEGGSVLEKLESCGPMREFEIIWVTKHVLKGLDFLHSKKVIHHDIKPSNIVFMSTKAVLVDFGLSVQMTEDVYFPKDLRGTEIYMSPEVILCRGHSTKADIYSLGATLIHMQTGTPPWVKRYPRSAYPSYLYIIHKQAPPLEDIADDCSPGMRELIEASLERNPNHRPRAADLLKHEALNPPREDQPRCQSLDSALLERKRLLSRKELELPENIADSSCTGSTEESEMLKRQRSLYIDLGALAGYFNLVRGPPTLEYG
Sequence of RPS6KA2 KD1 KD2 (human) (Q15349 whole entry, looked up): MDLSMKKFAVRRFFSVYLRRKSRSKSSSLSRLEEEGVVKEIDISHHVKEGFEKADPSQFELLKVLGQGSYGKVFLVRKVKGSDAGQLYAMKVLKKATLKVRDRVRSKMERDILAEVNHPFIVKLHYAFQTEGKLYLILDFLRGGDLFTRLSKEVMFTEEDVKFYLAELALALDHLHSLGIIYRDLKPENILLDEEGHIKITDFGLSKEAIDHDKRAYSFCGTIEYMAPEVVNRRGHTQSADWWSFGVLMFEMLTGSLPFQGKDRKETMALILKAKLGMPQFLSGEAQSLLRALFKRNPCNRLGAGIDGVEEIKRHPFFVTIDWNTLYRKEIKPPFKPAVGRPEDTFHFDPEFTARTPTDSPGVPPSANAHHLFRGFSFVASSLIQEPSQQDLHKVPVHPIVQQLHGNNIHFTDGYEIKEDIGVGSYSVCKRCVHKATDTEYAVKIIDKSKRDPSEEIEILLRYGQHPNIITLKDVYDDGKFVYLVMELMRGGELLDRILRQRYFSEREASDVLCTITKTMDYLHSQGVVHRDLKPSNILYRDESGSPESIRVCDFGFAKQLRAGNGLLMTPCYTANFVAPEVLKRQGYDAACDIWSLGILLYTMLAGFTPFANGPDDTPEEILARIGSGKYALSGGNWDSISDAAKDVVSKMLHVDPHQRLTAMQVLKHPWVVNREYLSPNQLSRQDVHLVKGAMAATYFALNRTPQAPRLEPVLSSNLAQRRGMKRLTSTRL
Sequence of ALK (human) (Q9UM73 whole entry, looked up): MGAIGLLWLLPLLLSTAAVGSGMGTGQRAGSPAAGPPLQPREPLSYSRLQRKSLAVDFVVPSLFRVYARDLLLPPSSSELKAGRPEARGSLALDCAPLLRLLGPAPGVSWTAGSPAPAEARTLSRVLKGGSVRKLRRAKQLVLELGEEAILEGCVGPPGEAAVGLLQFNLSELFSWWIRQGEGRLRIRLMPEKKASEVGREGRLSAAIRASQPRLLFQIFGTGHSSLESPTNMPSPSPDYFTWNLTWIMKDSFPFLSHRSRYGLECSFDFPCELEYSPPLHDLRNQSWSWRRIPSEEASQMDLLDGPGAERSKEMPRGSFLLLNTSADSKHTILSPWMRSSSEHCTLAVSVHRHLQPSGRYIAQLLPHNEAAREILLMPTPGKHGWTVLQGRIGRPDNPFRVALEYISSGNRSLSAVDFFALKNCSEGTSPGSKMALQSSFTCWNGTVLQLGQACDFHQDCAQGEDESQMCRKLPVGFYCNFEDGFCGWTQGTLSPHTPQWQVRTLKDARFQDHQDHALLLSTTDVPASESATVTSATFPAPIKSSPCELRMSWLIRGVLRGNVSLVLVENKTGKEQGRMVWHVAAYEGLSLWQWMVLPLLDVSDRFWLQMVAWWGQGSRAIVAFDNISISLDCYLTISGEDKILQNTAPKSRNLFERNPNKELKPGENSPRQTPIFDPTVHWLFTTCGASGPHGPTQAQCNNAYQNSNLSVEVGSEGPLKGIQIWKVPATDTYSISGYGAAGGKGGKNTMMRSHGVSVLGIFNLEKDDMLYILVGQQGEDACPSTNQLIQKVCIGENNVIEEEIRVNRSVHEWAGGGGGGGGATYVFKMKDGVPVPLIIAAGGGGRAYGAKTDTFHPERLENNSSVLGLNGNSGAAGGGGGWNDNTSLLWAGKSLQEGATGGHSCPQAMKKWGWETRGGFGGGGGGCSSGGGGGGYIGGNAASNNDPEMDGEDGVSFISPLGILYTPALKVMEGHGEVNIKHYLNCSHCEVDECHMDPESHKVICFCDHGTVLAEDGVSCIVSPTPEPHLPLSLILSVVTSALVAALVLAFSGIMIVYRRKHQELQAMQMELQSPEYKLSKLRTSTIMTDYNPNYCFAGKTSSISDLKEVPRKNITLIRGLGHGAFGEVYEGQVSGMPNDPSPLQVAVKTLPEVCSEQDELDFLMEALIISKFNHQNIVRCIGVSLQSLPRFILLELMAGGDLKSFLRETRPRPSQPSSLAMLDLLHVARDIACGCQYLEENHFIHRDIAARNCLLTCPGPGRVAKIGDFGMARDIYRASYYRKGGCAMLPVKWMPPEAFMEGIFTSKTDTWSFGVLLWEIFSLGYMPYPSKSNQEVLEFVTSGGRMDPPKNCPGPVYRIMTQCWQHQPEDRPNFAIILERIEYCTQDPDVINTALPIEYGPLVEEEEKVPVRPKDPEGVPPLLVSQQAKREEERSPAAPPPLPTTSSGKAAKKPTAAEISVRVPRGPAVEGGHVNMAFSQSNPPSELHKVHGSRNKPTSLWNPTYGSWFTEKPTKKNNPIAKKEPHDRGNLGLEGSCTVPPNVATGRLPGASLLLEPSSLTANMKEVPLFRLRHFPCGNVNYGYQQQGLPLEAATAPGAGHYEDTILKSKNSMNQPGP

CCC(=O)Nc1ccc2ncnc(Nc3cccc(Br)c3)c2c1
residual activity (MET (human)): 103%
residual activity (EPHA4 (human)): 94.3%
residual activity (PRKD1 (human)): 97.9%
residual activity (EPHA2 (human)): 101%
residual activity (PAK2 (human)): 101%
residual activity (HIPK4 (human)): 87.8%
residual activity (DYRK1B (human)): 95.2%
residual activity (PRKX (human)): 95.7%
residual activity (MAP3K8 (human)): 93%
residual activity (PHKG2 (human)): 109%
residual activity (MAPK11 (human)): 92.9%
residual activity (TXK (human)): 90.5%
residual activity [1]: 96.6%
residual activity (MAP4K5 (human)): 89%
residual activity (RPS6KA1 KD1 KD2 (human)): 88.7%
residual activity (RPS6KA5 KD2 (human)): 90%
residual activity (RPS6KA2 KD1 KD2 (human)): 87.2%
residual activity (CDC42BPB (human)): 114%
residual activity (CDK2 CCNA2 (human)): 95.1%
residual activity (NLK (human)): 95.9%
residual activity (MAP3K3 (human)): 89.8%
residual activity (STK17A (human)): 88.7%
residual activity (MAPK12 (human)): 103%
residual activity (PRKCB1 (human)): 99.2%
residual activity (PIM1 (human)): 85.3%
residual activity (CSNK2A1 (human)): 99%
residual activity (TNK2 (human)): 93.5%
residual activity (CHEK2 (human)): 87.1%
residual activity (WNK3 (human)): 99.3%
residual activity (TEK (human)): 91.2%
residual activity (CAMK4 (human)): 103%
residual activity (ULK2 (human)): 118%
residual activity (ALK (human)): 83.1%
residual activity (CAMK1 (human)): 88.9%
residual activity (DYRK3 (human)): 92.3%
residual activity (ACVRL1 (human)): 97.4%
residual activity (PRKACG (human)): 95.5%
residual activity (AKT1 (human)): 95.8%
residual activity (FGFR4 (human)): 95.2%
residual activity (DCLK2 (human)): 89%
residual activity (CSNK1G1 (human)): 98.6%
residual activity (SGK2 (human)): 96.2%

CO[C@H]1CC2CC[C@@H](C)[C@@](O)(O2)C(=O)C(=O)N2CCCC[C@H]2C(=O)OC([C@H](C)C[C@@H]2CC[C@@H](O)[C@H](OC)C2)CC(=O)[C@H](C)/C=C(\C)[C@@H](O)[C@@H](OC)C(=O)[C@H](C)C[C@H](C)/C=C/C=C/C=C/1C (stereo partly specified)
residual activity (MET (human)): 98.1%
residual activity (EPHA4 (human)): 115%
residual activity (PRKD1 (human)): 98.2%
residual activity (EPHA2 (human)): 107%
residual activity (PAK2 (human)): 101%
residual activity (HIPK4 (human)): 92.9%
residual activity (DYRK1B (human)): 108%
residual activity (PRKX (human)): 95.6%
residual activity (MAP3K8 (human)): 99.8%
residual activity (PHKG2 (human)): 108%
residual activity (MAPK11 (human)): 113%
residual activity (TXK (human)): 105%
residual activity [1]: 103%
residual activity (MAP4K5 (human)): 110%
residual activity (RPS6KA1 KD1 KD2 (human)): 104%
residual activity (RPS6KA5 KD2 (human)): 106%
residual activity (RPS6KA2 KD1 KD2 (human)): 89.5%
residual activity (CDC42BPB (human)): 103%
residual activity (CDK2 CCNA2 (human)): 101%
residual activity (NLK (human)): 97.3%
residual activity (MAP3K3 (human)): 101%
residual activity (STK17A (human)): 95.9%
residual activity (MAPK12 (human)): 107%
residual activity (PRKCB1 (human)): 102%
residual activity (PIM1 (human)): 104%
residual activity (CSNK2A1 (human)): 94.7%
residual activity (TNK2 (human)): 98.5%
residual activity (CHEK2 (human)): 99%
residual activity (WNK3 (human)): 102%
residual activity (TEK (human)): 97.6%
residual activity (CAMK4 (human)): 99.1%
residual activity (ULK2 (human)): 120%
residual activity (ALK (human)): 115%
residual activity (CAMK1 (human)): 111%
residual activity (DYRK3 (human)): 105%
residual activity (ACVRL1 (human)): 97.9%
residual activity (PRKACG (human)): 113%
residual activity (AKT1 (human)): 104%
residual activity (FGFR4 (human)): 76.6%
residual activity (DCLK2 (human)): 99.2%
residual activity (CSNK1G1 (human)): 96%
residual activity (SGK2 (human)): 101%

N#C/C(=C(/N)Sc1ccc(N)cc1)c1ccccc1C(F)(F)F
residual activity (MET (human)): 77.2%
residual activity (EPHA4 (human)): 99.3%
residual activity (PRKD1 (human)): 103%
residual activity (EPHA2 (human)): 104%
residual activity (PAK2 (human)): 98%
residual activity (HIPK4 (human)): 100%
residual activity (DYRK1B (human)): 99.6%
residual activity (PRKX (human)): 98.9%
residual activity (MAP3K8 (human)): 96.5%
residual activity (PHKG2 (human)): 96.1%
residual activity (MAPK11 (human)): 112%
residual activity (TXK (human)): 98.7%
residual activity [1]: 106%
residual activity (MAP4K5 (human)): 94%
residual activity (RPS6KA1 KD1 KD2 (human)): 88.7%
residual activity (RPS6KA5 KD2 (human)): 97.9%
residual activity (RPS6KA2 KD1 KD2 (human)): 99.2%
residual activity (CDC42BPB (human)): 104%
residual activity (CDK2 CCNA2 (human)): 95.9%
residual activity (NLK (human)): 108%
residual activity (MAP3K3 (human)): 97.7%
residual activity (STK17A (human)): 82.6%
residual activity (MAPK12 (human)): 97.4%
residual activity (PRKCB1 (human)): 93.1%
residual activity (PIM1 (human)): 99.7%
residual activity (CSNK2A1 (human)): 97.9%
residual activity (TNK2 (human)): 100%
residual activity (CHEK2 (human)): 97.7%
residual activity (WNK3 (human)): 94.9%
residual activity (TEK (human)): 104%
residual activity (CAMK4 (human)): 110%
residual activity (ULK2 (human)): 115%
residual activity (ALK (human)): 100%
residual activity (CAMK1 (human)): 91.6%
residual activity (DYRK3 (human)): 105%
residual activity (ACVRL1 (human)): 106%
residual activity (PRKACG (human)): 101%
residual activity (AKT1 (human)): 101%
residual activity (FGFR4 (human)): 108%
residual activity (DCLK2 (human)): 99.1%
residual activity (CSNK1G1 (human)): 89%
residual activity (SGK2 (human)): 99%
